Consider one compound from US4590161A, “Microbiologically produced L-phenylalanine-dehydrogenase, process for its recovery and use” (priority 1983, dated 1986).

The test system of test [1] is L-phenylalanine-dehydrogenase. As to the kind of experiment: Batch reductive amination of α-ketocarboxylic acids with NADH regeneration by formate-dehydrogenase, product on aminoacid analyzer. The test is classed as biochemical, Brevibacterium species DSM 2448. The method, then:
In order to regenerate the NADH consumed in the reductive amination there was added to the reaction mixture an excess of ammonium formate and the enzyme formate-dehydrogenase (E.C. 1.2.1.2) which in the oxidation of formate to CO2 reduces the cosubstrate NAD^+ to NADH.
The test mixture contained thereby uniformly 400 mM of ammonium formate (pH 8.5), 0.3 mM NADH, 0.6 U/ml formate-dehydrogenase (prepared according to Kroner et al (1982), J. Chem. Tech. Biotechnol, Volume 32, pages 130 to 137), 0.5 U/ml L-phenylalanine-dehydrogenase, 25 mM α-ketocarboxylic acid. The total volume was 3 ml. The incubation was carried out with stirring at 27° C. The product formation in each case was followed on the aminoacid analyzer.

Test [2] deals with L-phenylalanine-dehydrogenase. In words: Continuous production of L-phenylalanine in enzyme membrane reactor with PEG-NADH. The test is classed as biochemical, Brevibacterium species DSM 2448. Conditions: over 110 hours, residence time 2.5 hours, 20 mM phenyl pyruvate. The source says:
It is possible to continuously synthesize phenalyalanine from phenyl pyruvate in an enzyme membrane reactor using molecular weight enlarged NADH bound to polyethylene glycoe (PEG). The PEG-NADH was produced according to German Pat. No. 2,841,414. The modified coenzyme and the enzyme formate-dehydrogenase employed and L-phenylalanine-dehydrogenase were retained in the reactor by an ultrafiltration membrane YM5 (product of the Amicon Company, Witten) while the lower molecular weight components of the reaction solution, unreacted substrate and the L-phenylalanine formed were continuously removed from the reactor. The reactor volume was held constant while phenyl pyruvate and ammonium formate were metered in from a reservoir to the same extent that the ultrafiltrate left the reactor. The reactor volume was 10 ml, the concentration of PEG-NADH 0.3 mM. There were injected into the reactor 20 units of formate-dehydrogenaseand 20 units of L-phenylalanine-dehydrogenase. […]
The reaction solution was continuously circulated over the membrane at 30 ml/hour with a peristaltic pump. […] The ultrafiltrate was collected in fractions and the content of L-phenylalanine determined on the aminoacid analyzer. Over a time span of 110 hours on the average 70% of the phenyl pyruvate was converted to L-phenylalanine, in the combined ultrafiltrates there were measured 6.9 mmoles (1.14 grams) of L-phenylalanine. […]

Test [3] has as its system L-phenylalanine-dehydrogenase. In words: Photometric test of reductive amination (decrease of NADH at 340 nm). Conditions: purified PheDH (0.055 mg protein/ml), pH 8.5, 0.2 mM NADH, 0.7M ammonium chloride.
Protocol: The enzyme activity is determined with a photometric test, by measuring the decrease of the adsorption of NADH at 340 nm. […] The reaction rate of the catalyzed reaction is measured in relation of pH. […] If the substrate concentration of the aromatic α-ketocarboxylic acids or of the aromatic L-aminocarboxylic acids is small compared to their Km value then the reaction rate depends linearly on the substrate concentration.
The relationship of the speed of reaction of the reductive amination of phenyl pyruvate to L-phenylalanine for the substrate NADH was investigated in the following test mixture:
The dependency of the speed of reaction of the reductive amination of phenyl pyruvate to L-phenylalanine on the ammonium ion concentration was investigated in the following test mixture.
The mark [4] stands for this setting: 25 mM α-ketocarboxylic acid, 0.5 U/ml enzyme, 27° C., 2 hours.
The mark [5] stands for this setting: 25 mM α-ketocarboxylic acid, 0.5 U/ml enzyme, 27° C., 6 hours.

As a reminder, the Km is the substrate concentration at which the rate is half of its maximum. In the case of `O=C(O)C(=O)Cc1ccccc1` [Phenylpyruvate, Phenyl pyruvic acid], in test [1] (setting [4]), the “Product Formation after 2 hours, %” value stood at 50% and the “Product Formation after 2 hours, mM” value is recorded as 12,5 mM. In test [1] (setting [5]), the “Product Formation after 6 hours, %” value came to 66% and the “Product Formation after 6 hours, mM” value was 16,6 mM. Besides, the “Utilization as a substrate” value in test [1] (result in words) is listed as “converted well”. For the same compound, the “phenyl pyruvate converted to L-phenylalanine, on the average” value in test [2] came out at 70%. Also, in test [3], the Km is 110 µM and the Vmax turned out to be 1.82 U/ml.
